Results taken from ChEMBL document CHEMBL5625206, “Design, synthesis, and evaluation of novel pleuromutilin aryl acrylate derivatives as promising broad-spectrum antibiotics especially for combatting multi-drug resistant gram-negative bacteria” (Eur J Med Chem, 2023).
In brackets after ≈: the same amount, converted by molar mass.

Key:
[1] = test system: Staphylococcus epidermidis; test: Antibacterial activity against Staphylococcus epidermidis ATCC 12228 assessed as bacterial growth inhibition incubated for 24 hrs by CLSI based broth microdilution method; format: functional
Staphylococcus aureus [2] = test: Antibacterial activity against Staphylococcus aureus ATCC 25923 assessed as bacterial growth inhibition incubated for 24 hrs by CLSI based broth microdilution method; format: functional
Staphylococcus aureus [3] = test: Antibacterial activity against Staphylococcus aureus ATCC 29213 assessed as bacterial growth inhibition incubated for 24 hrs by CLSI based broth microdilution method; format: functional
Staphylococcus aureus [4] = test: Antibacterial activity against methicillin-resistant Staphylococcus aureus ATCC 33591 assessed as bacterial growth inhibition incubated for 24 hrs by CLSI based broth microdilution method; format: functional
Escherichia coli = test: Antibacterial activity against Escherichia coli ATCC 25922 assessed as bacterial growth inhibition incubated for 24 hrs by CLSI based broth microdilution method; format: functional
Acinetobacter baumannii [5] = test: Antibacterial activity against Acinetobacter baumannii ATCC 19606 assessed as bacterial growth inhibition incubated for 24 hrs by CLSI based broth microdilution method; format: functional
Staphylococcus aureus [6] = test: Antibacterial activity against methicillin-resistant Staphylococcus aureus 171 clinical isolate assessed as bacterial growth inhibition incubated for 24 hrs by CLSI based broth microdilution method; format: functional
Staphylococcus aureus [7] = test: Antibacterial activity against methicillin-resistant Staphylococcus aureus 575 clinical isolate assessed as bacterial growth inhibition incubated for 24 hrs by CLSI based broth microdilution method; format: functional
Enterococcus = test: Antibacterial activity against vancomycin-resistant Enterococcus 80 clinical isolate assessed as bacterial growth inhibition incubated for 24 hrs by CLSI based broth microdilution method; format: functional
Pseudomonas aeruginosa = test: Antibacterial activity against multidrug-resistant Pseudomonas aeruginosa 126 clinical isolate assessed as bacterial growth inhibition incubated for 24 hrs by CLSI based broth microdilution method; format: functional
Klebsiella pneumoniae = test: Antibacterial activity against multidrug-resistant Klebsiella pneumoniae 893 clinical isolate assessed as bacterial growth inhibition incubated for 24 hrs by CLSI based broth microdilution method; format: functional
Acinetobacter baumannii [8] = test: Antibacterial activity against carbapenem-resistant Acinetobacter baumannii 882 clinical isolate assessed as bacterial growth inhibition incubated for 24 hrs by CLSI based broth microdilution method; format: functional
[9] = Cytotoxicity against human HepG2 cells incubated for 24 hrs by CCK8 assay; format: toxicity, cell-based
[10] = Cytotoxicity against HEK293 cells incubated for 24 hrs by CCK8 assay; format: toxicity, cell-based; details: human
[11] = Cytotoxicity against human A549 cells incubated for 24 hrs by CCK8 assay; format: toxicity, cell-based

Compound	MIC [1]	MIC (Staphylococcus aureus [2])	MIC (Staphylococcus aureus [3])	MIC (Staphylococcus aureus [4])	MIC (Escherichia coli)	MIC (Acinetobacter baumannii [5])	MIC (Staphylococcus aureus [6])	MIC (Staphylococcus aureus [7])	MIC (Enterococcus)	MIC (Pseudomonas aeruginosa)	MIC (Klebsiella pneumoniae)	MIC (Acinetobacter baumannii [8])	CC50 at 24 h [9]	CC50 at 24 h [10]	CC50 at 24 h [11]
C=C[C@]1(C)C[C@@H](OC(=O)COC(=O)/C=C/c2ccc(OCc3ccccc3)cc2)[C@]2(C)[C@H](C)CC[C@]3(CCC(=O)[C@H]32)[C@@H](C)[C@@H]1O	32 µg/mL (≈ 52.1 µM)	16 µg/mL (≈ 26 µM)	32 µg/mL (≈ 52.1 µM)	128 µg/mL (≈ 208 µM)	> 128 µg/mL	64 µg/mL (≈ 104 µM)									
C=C[C@]1(C)C[C@@H](OC(=O)COC(=O)/C(C#N)=C/c2ccccc2)[C@]2(C)[C@H](C)CC[C@]3(CCC(=O)[C@H]32)[C@@H](C)[C@@H]1O	8 µg/mL (≈ 15 µM)	4 µg/mL (≈ 7.5 µM)	8 µg/mL (≈ 15 µM)	32 µg/mL (≈ 60 µM)	8 µg/mL (≈ 15 µM)	4 µg/mL (≈ 7.5 µM)	64 µg/mL (≈ 120 µM)	> 128 µg/mL	8 µg/mL (≈ 15 µM)	64 µg/mL (≈ 120 µM)	32 µg/mL (≈ 60 µM)	8 µg/mL (≈ 15 µM)	> 200 µM	> 200 µM	> 200 µM
C=C[C@]1(C)C[C@@H](OC(=O)COC(=O)/C=C/c2ccc3ccccc3c2)[C@]2(C)[C@H](C)CC[C@]3(CCC(=O)[C@H]32)[C@@H](C)[C@@H]1O	32 µg/mL (≈ 57.3 µM)	16 µg/mL (≈ 28.6 µM)	32 µg/mL (≈ 57.3 µM)	128 µg/mL (≈ 229 µM)	> 128 µg/mL	> 128 µg/mL									
C=C[C@]1(C)C[C@@H](OC(=O)COC(=O)/C=C/c2ccc(-c3ccccc3)cc2)[C@]2(C)[C@H](C)CC[C@]3(CCC(=O)[C@H]32)[C@@H](C)[C@@H]1O	32 µg/mL (≈ 54.7 µM)	64 µg/mL (≈ 109 µM)	32 µg/mL (≈ 54.7 µM)	64 µg/mL (≈ 109 µM)	> 128 µg/mL	> 128 µg/mL									
C=C[C@]1(C)C[C@@H](OC(=O)COC(=O)/C=C/c2ccc(Cn3ccnc3)cc2)[C@]2(C)[C@H](C)CC[C@]3(CCC(=O)[C@H]32)[C@@H](C)[C@@H]1O	16 µg/mL (≈ 27.2 µM)	8 µg/mL (≈ 13.6 µM)	16 µg/mL (≈ 27.2 µM)	32 µg/mL (≈ 54.4 µM)	64 µg/mL (≈ 109 µM)	128 µg/mL (≈ 217 µM)									
C=C[C@]1(C)C[C@@H](OC(=O)COC(=O)/C=C/c2ccc(F)c(Cl)c2)[C@]2(C)[C@H](C)CC[C@]3(CCC(=O)[C@H]32)[C@@H](C)[C@@H]1O	32 µg/mL (≈ 57 µM)	16 µg/mL (≈ 28.5 µM)	32 µg/mL (≈ 57 µM)	64 µg/mL (≈ 114 µM)	64 µg/mL (≈ 114 µM)	> 128 µg/mL									
C=C[C@]1(C)C[C@@H](OC(=O)COC(=O)/C=C/c2ccc(F)cc2)[C@]2(C)[C@H](C)CC[C@]3(CCC(=O)[C@H]32)[C@@H](C)[C@@H]1O	32 µg/mL (≈ 60.8 µM)	16 µg/mL (≈ 30.4 µM)	32 µg/mL (≈ 60.8 µM)	32 µg/mL (≈ 60.8 µM)	128 µg/mL (≈ 243 µM)	128 µg/mL (≈ 243 µM)									
C=C[C@]1(C)C[C@@H](OC(=O)COC(=O)/C=C/c2cccc(C(F)(F)F)c2)[C@]2(C)[C@H](C)CC[C@]3(CCC(=O)[C@H]32)[C@@H](C)[C@@H]1O	64 µg/mL (≈ 111 µM)	32 µg/mL (≈ 55.5 µM)	64 µg/mL (≈ 111 µM)	256 µg/mL (≈ 444 µM)	64 µg/mL (≈ 111 µM)	128 µg/mL (≈ 222 µM)									
